Numbered stars: 1 amine (or outer) side, 2 acyl side, 3 side chain; on linkers, the order of the positions; unused ones are H or OH. Peptide text beside a SMILES is read from it. * marks the point of attachment. AMC = Cc1cc(=O)oc2cc(N*)ccc12; Suc = O=C(CCC(=O)[*:2])[*:1]; Cbz = O=C(OCc1ccccc1)*; OtBu = CC(C)(C)O*
How the values were obtained:
MV4‐11 cells = test: Cell viability endpoint assay (Celltiter Blue, 72 h); assay type: cell-based; details: Homo sapiens, MV4-11, mean±SD from two independent experiments
Description: Cell lines. MV4‐11 (ACC 102), Jurkat (ACC 282) and THP‐1 (ACC 16) cells were obtained from DSMZ and maintained at 37 °C and 5 % CO2 at densities between 0.2–1×10^6 cells per mL in RMPI‐1640 medium supplemented with 10 % FBS, L‐glutamine (2 mM) and penicillin/streptomycin.
Cell viability endpoint assay. For the determination of cytotoxicity of proteasome inhibitors 50.000 cells per well were plated in 90 μl RPMI‐1640 medium supplemented with 0.1 % FBS and incubated overnight at 37 °C and 5 % CO2. Inhibitors were serially diluted in RPMI‐1640 medium as 10‐fold stocks and added to cells giving the final concentration (1 nM to 10 μM, Figure S2–S4) and incubated for 72 h at 37 °C and 5 % CO2. Cell viability was determined using the Celltiter Blue assay (Promega) by adding 20 μl of reagent, incubation for 120 minutes at 37 °C and 5 % CO2 and fluorescent read‐out using a Tecan M1000 microplate reader. Dose‐response curves were fitted to the equation “Y=Bottom+(Top‐Bottom)/(1+10^(X−L°^gIC50))” using GraphPad Prism 7.02. IC50 values are determined from technical triplicates as mean value of two independent experiments. Standard deviations (Table S1) as well as dose response curves (SI chapter 2b) are given in the supplementary information.

[1] = target: T1, β5c subunit of isolated human 20S proteasome (Homo sapiens, UniProt P28074); test: Proteasome inhibition assay (20 S Proteasome Assay Kit, Suc‐LLVY‐AMC); assay type: biochemical
T1 construct: purchased Enzo Life Sciences
Description: (§1) Proteasome inhibition assay. […] The 20 S Proteasome Assay Kit for Drug Discovery was used according to the supplier's protocol using Suc‐LLVY‐AMC (β5), Bz‐VGR‐AMC (β2) or Z‐LLE‐AMC (β1) as substrates (Enzo Life Sciences). Single point measurements of residual activity of proteasome activity were performed at a final concentration of 100 nM (n=3, β5c, β5i) or 1 μM (n=1, β1c, β2c, β5c, β5i, SI chapter 2a, Table S1). […] Inhibitors were prepared in 2‐fold concentration (cfinal=100 nM) and added to proteasomes (mfinal=200 ng/well). After 30 min incubation, substrate was added (cfinal=100 μM), incubated for 60 minutes and fluorescence was read using a Tecan M1000 microplate reader. […] IC50 values were determined from technical duplicates as mean value of three independent experiments.

[2] = target: T2, β5i subunit of isolated human 20S proteasome (Homo sapiens, UniProt P28062); test: as above; assay type: biochemical
T2 construct: purchased Enzo Life Sciences
Description: as §1

[3] = target: T3, β2c subunit of isolated human 20S proteasome (Homo sapiens, UniProt Q99436); test: Proteasome inhibition assay (20 S Proteasome Assay Kit, Bz‐VGR‐AMC); assay type: biochemical; details: c = 1 µM, n=1; read-out: Inhibition cCP β2
T3 construct: purchased Enzo Life Sciences
Description: Proteasome inhibition assay. Bortezomib (Selleckchem) and carfilzomib (MedChemExpress) were purchased and used without further purification. The 20 S Proteasome Assay Kit for Drug Discovery was used according to the supplier's protocol using Suc‐LLVY‐AMC (β5), Bz‐VGR‐AMC (β2) or Z‐LLE‐AMC (β1) as substrates (Enzo Life Sciences). Single point measurements of residual activity of proteasome activity were performed at a final concentration of 100 nM (n=3, β5c, β5i) or 1 μM (n=1, β1c, β2c, β5c, β5i, SI chapter 2a, Table S1). […] Inhibitors were prepared in 2‐fold concentration (cfinal=100 nM) and added to proteasomes (mfinal=200 ng/well). After 30 min incubation, substrate was added (cfinal=100 μM), incubated for 60 minutes and fluorescence was read using a Tecan M1000 microplate reader. Dose‐response curves were fitted to the equation Y=100/(1+10^((L°^gIC50−X)*HillSl°^pe)) using GraphPad Prism 7.02. IC50 values were determined from technical duplicates as mean value of three independent experiments.

[4] = target: T4, β1c subunit of isolated human 20S proteasome (Homo sapiens, UniProt P28072); test: Proteasome inhibition assay (20 S Proteasome Assay Kit, Z‐LLE‐AMC); assay type: biochemical; details: c = 1 µM, n=1; read-out: Inhibition cCP β1
T4 construct: purchased Enzo Life Sciences
Description: as §1

Danio rerio embryos [5] = test: Danio rerio embryo toxicity assay (not dechorionated); assay type: in vivo
Description: Danio rerio embryo toxicity assay. Fish keeping protocols are approved by the Darmstadt administrative authority and documented. All fish were treated humanely. […] Embryos were decollated into separate wells containing a total volume of 200 μL and the inhibitor at the given concentration.

Danio rerio embryos [6] = test: Danio rerio escape response (neurotoxicity) assay, dechorionated embryos; assay type: in vivo; details: for C-Bend Amplitude, Difference between means / C-Bend duration, Difference between means / Number of movements per 100 ms, Difference between means / Number of total movements, Difference between means: versus control
Description: Danio rerio escape response assay. 24 hours past fertilization embryos were dechorionated and transferred into 96‐well plates containing 198 μL of E3 media at 26 °C. […] Incubation times were 24 h, 48 h and 72 h. Survival of the embryos was determined by visual analysis of heart‐beat. For recording the touch evoked escape response, embryos were transferred to a microscopy slide with cavity that is placed on a SL‐300 LED Soft Light (Dörr, Neu‐Ulm, Germany) under a MotionBlitz EoSens mini1‐1 MC1370 high speed camera (Mikrotron, Unterschleißheim, Germany, Figure S18). An escape response was triggered by a touch stimulus at the trunk of embryos using a small sewing needle, which is slightly blunted. For each embryo, a maximum of 50 stimuli was applied. […] No escape response was determined if only one embryo was alive at 96 hpf. Movement was recorded at 96 hpf at 500 frames per second for 3 seconds using the MotionBlitzDirector 2 software. Determination of the amplitude α defined by the body angle spanned between the head, yolk and tail using a MATLAB‐based software tool and plotted using GraphPad Prism 7.02.

[7] = system: proteasome in MV4‐11 cells; test: Cellular conversion of fluorogenic proteasome substrates (assay validation); assay type: cell-based
Description: First, we benchmarked the fluorogenic substrate 30 towards the standard substrate 31 (Suc‐LLVY‐AMC) using varying substrate concentrations and cell numbers of MV4‐11 cells (Figure 5b). The highest substrate conversion was detected using 100 μM 30 in 50.000 cells (135 rfu/min) in MV4‐11 cells and was converted ∼4 times faster than 31 (33.3 rfu/min). There was an increase of differences in conversion rates with smaller number of cells (10.000 cells, 100 μM substrate: 10‐fold conversion) and lower substrate concentration (50.000 cells, 25 μM substrate: 15‐fold conversion).
In‐cell determination of proteasome IC 50. […] Inhibitors were serially diluted in RPMI‐1640 medium as 10‐fold stocks, added to cells giving final concentrations and incubated for 0 h–13 h at 37 °C and 5 % CO2 (Figure S5–S8). Substrate was added to give a final concentration of 30 μM and substrate conversion was detected by fluorescence measurement over 100 min (assay validation) or 60 min (inhibition assays) using a Tecan M1000 microplate reader. Rate of fluorescence change over time was calculated, rates for negative (no‐cell) control was subtracted and normalized to positive control (no inhibitor). Dose‐response curves were fitted to the equation “Y=100/(1+10^((L°^gIC50−X)*HillSl°^pe))” using GraphPad Prism 7.02 (SI chapter 2b, Figure S2–S4).

[8] = 25 μM, 24 h, listed as bortezomib
[9] = 25 μM, 48 h, listed as bortezomib
[10] = 50 μM, 24 h, listed as bortezomib
[11] = 100 μM substrate, 50.000 MV4‐11 cells

CC(C)C[C@H](NC(=O)[C@H](Cc1ccccc1)NC(=O)c1cnccn1)B(O)O [Bortezomib 1, Bortezomib, reference compound]
IC50 (MV4‐11 cells): 34 ± 5 nM
inhibition at 1 µM ([1]; c = 1 µM, n=1, read-out: Inhibition cCP β5): 98%
inhibition at 0.1 µM ([1]; c=100 nM, read-out: Rel. Inhibition β5c): 89%
inhibition at 1 µM ([2]; c = 1 µM, n=1, read-out: Inhibition iCP β5): 98%
inhibition at 0.1 µM ([2]; c=100 nM, read-out: Rel. Inhibition β5i): 85%
inhibition at 1 µM [3]: 5%
inhibition at 1 µM [4]: 80%
Survival of embryos (not dechorionated) (Danio rerio embryos [5]; 1 µM, 24 h): 100%
Survival of embryos (not dechorionated) (Danio rerio embryos [5]; 1 µM, 48 h): 100%
Survival of embryos (not dechorionated) (Danio rerio embryos [5]; 1 µM, 72 h): 100%
Survival of embryos (not dechorionated) (Danio rerio embryos [5]; 1 µM, 96 h): 100%
Survival of embryos (not dechorionated) (Danio rerio embryos [5]; 5 µM, 24 h): 100%
Survival of embryos (not dechorionated) (Danio rerio embryos [5]; 5 µM, 48 h): 100%
Survival of embryos (not dechorionated) (Danio rerio embryos [5]; 5 µM, 72 h): 100%
Survival of embryos (not dechorionated) (Danio rerio embryos [5]; 5 µM, 96 h): 80%
Survival of embryos (not dechorionated) (Danio rerio embryos [5]; 10 µM, 24 h): 100%
Survival of embryos (not dechorionated) (Danio rerio embryos [5]; 10 µM, 48 h): 100%
Survival of embryos (not dechorionated) (Danio rerio embryos [5]; 10 µM, 72 h): 100%
Survival of embryos (not dechorionated) (Danio rerio embryos [5]; 10 µM, 96 h): 100%
Survival of embryos (not dechorionated) (Danio rerio embryos [5]; 25 µM, 24 h): 100%
Survival of embryos (not dechorionated) (Danio rerio embryos [5]; 25 µM, 48 h): 100%
Survival of embryos (not dechorionated) (Danio rerio embryos [5]; 25 µM, 72 h): 100%
Survival of embryos (not dechorionated) (Danio rerio embryos [5]; 25 µM, 96 h): 80%
Reflex Duration (Danio rerio embryos [6]; 25 µM, 24 h): 540,2 ± 136,6 ms
mean reflexes per stimuli (Danio rerio embryos [6]; 25 µM, 24 h): 8%
C-Bend Amplitude (Danio rerio embryos [6]; 25 μM, 24 h, listed as 1): 131,6 ± 21,3 °
C-Bend Duration (Danio rerio embryos [6]; 25 μM, 24 h, listed as 1): 32,67 ± 6,489 ms
Number of movements (Danio rerio embryos [6]; 25 μM, 24 h, listed as 1): 11,56 ± 3,33
Number of movements per 100 ms (Danio rerio embryos [6]; 25 μM, 24 h, listed as 1): 1,916 ± 0,3504
C-Bend Amplitude (Danio rerio embryos [6]; [8]): 131.6±21.3 °
C-Bend Duration (Danio rerio embryos [6]; [8]): 32.7 ± 6.5 ms
Number of movements per 100 ms (Danio rerio embryos [6]; [8]): 1.92±0.35
C-Bend Amplitude, Difference between means (Danio rerio embryos [6]; 25 µM, 24 h): 2,556 ± 25,09
C-Bend duration, Difference between means (Danio rerio embryos [6]; 25 µM, 24 h): 13 ± 6,633
Number of movements per 100 ms, Difference between means (Danio rerio embryos [6]; 25 µM, 24 h): -1,559 ± 0,4739
Reflex Duration (Danio rerio embryos [6]; 25 µM, 48 h): 289,3 ± 198,9 ms
mean reflexes per stimuli (Danio rerio embryos [6]; 25 µM, 48 h): 2%
C-Bend Amplitude (Danio rerio embryos [6]; 25 μM, 48 h, listed as 1): 6,889 ± 5,549 °
C-Bend Duration (Danio rerio embryos [6]; 25 μM, 48 h, listed as 1): 8,222 ± 6,654 ms
Number of movements (Danio rerio embryos [6]; 25 μM, 48 h, listed as 1): 3,222 ± 2,259
Number of movements per 100 ms (Danio rerio embryos [6]; 25 μM, 48 h, listed as 1): 0,2435 ± 0,1615
C-Bend Amplitude (Danio rerio embryos [6]; [9]): 6.9±5.6 °
Number of movements per 100 ms (Danio rerio embryos [6]; [9]): 0.24±0.32
C-Bend Amplitude, Difference between means (Danio rerio embryos [6]; 25 µM, 48 h): -122,1 ± 14,37
Number of movements per 100 ms, Difference between means (Danio rerio embryos [6]; 25 µM, 48 h): -3,231 ± 0,3577
Number of total movements, Difference between means (Danio rerio embryos [6]; 25 µM, 48 h): -10,89 ± 3,622
Number of movements per 100 ms (Danio rerio embryos [6]; 50 μM, 24 h): 0±0
Reflex Duration (Danio rerio embryos [6]; 50 μM, 24 h): 0 ± 0 ms
responses to touch stimuli (Danio rerio embryos [6]; 50 μM, 24 h, 50 stimuli per embryo, 150 stimuli total): 0
C-Bend Amplitude (Danio rerio embryos [6]; 50 μM, 24 h, listed as 1): 0 ± 0 °
C-Bend Duration (Danio rerio embryos [6]; 50 μM, 24 h, listed as 1): 0 ± 0 ms
Number of movements (Danio rerio embryos [6]; 50 μM, 24 h, listed as 1): 0 ± 0
C-Bend Amplitude (Danio rerio embryos [6]; [10]): 0±0 °
C-Bend Duration (Danio rerio embryos [6]; [10]): 0 ± 0 ms
Number of movements (Danio rerio embryos [6]; [10]): 0
C-Bend Amplitude, Difference between means (Danio rerio embryos [6]; 50 µM, 24 h): -129 ± 13,26
C-Bend duration, Difference between means (Danio rerio embryos [6]; 50 µM, 24 h): -19,67 ± 1,374
Number of movements per 100 ms, Difference between means (Danio rerio embryos [6]; 50 µM, 24 h): -3,475 ± 0,3192
Number of total movements, Difference between means (Danio rerio embryos [6]; 50 µM, 24 h): -14,11 ± 2,831
overall survival at low doses (Danio rerio embryos [6]; dechorionated embryos): 92%
Survived (embryos of 4) (Danio rerio embryos [6]; dechorionated, 25 µM, 24 h): 4
Survived (embryos of 4) (Danio rerio embryos [6]; dechorionated, 25 µM, 48 h): 3
Survived (embryos of 4) (Danio rerio embryos [6]; dechorionated, 50 µM, 24 h): 4
treated embryos dead (Danio rerio embryos [6]; dechorionated, 50 μM 48 h to 72 h and 25 μM 72 h): 100%

Cc1cc(=O)oc2cc(NC(=O)[C@H](C)NC(=O)[C@H](CC(=O)OC(C)(C)C)NC(=O)[C@H](CC(C)C)NC(=O)OCc3ccccc3)ccc12 [Compound 30, Z‐LD(OtBu)A‐AMC] (Cbz-Leu-Asp(OtBu)-Ala-{AMC})
conversion of 30 relative to 31 [7, 11]: ~4 times
substrate conversion [7, 11]: 135 rfu/min
conversion of 30 relative to 31 ([7]; 10.000 cells, 100 μM substrate): 10 fold
conversion of 30 relative to 31 ([7]; 50.000 cells, 25 μM substrate): 15 fold

Cc1cc(=O)oc2cc(NC(=O)[C@H](Cc3ccc(O)cc3)NC(=O)[C@@H](NC(=O)[C@H](CC(C)C)NC(=O)[C@H](CC(C)C)NC(=O)CCC(=O)O)C(C)C)ccc12 [Compound 31, Suc‐LLVY‐AMC] (Suc-LLVY-{AMC})
substrate conversion [7, 11]: 33.3 rfu/min

Reference: paper PMC6916368, “Cell‐Based Optimization of Covalent Reversible Ketoamide Inhibitors Bridging the Unprimed to the Primed Site of the Proteasome β5 Subunit” (Chemmedchem, 2019)
